Where two headings read alike, the source gives them in different places.
Tests used:
[1] = By-product toxicity test (metabolic byproducts in the human body); details: for Metabolic by-products in human body: by the metabolic pathways of the compounds in the human body; for Toxicity: toxicity of the metabolic by-products in human body
[2] = High temperature stability study of compounds (60° C.); format: physicochemical; details: in the dark; for Ketorolac (%): related substance
Experimental: Test protocol: the compounds prepared in the present disclosure were placed in a colorless and transparent vial, placed in the dark at a high temperature (60° C.), and were sampled for day 0, day 5 and day 10, respectively, and the purity of the compounds and the change of the related substance (ketorolac) were determined.

[3] = human, 97.6 µM
[4] = in vitro; details: human, plasma
[5] = Enzymolysis kinetics experiment of compounds in plasma; details: for half-life at 97.6 µM: human, plasma; for Content of the compound %: human plasma, 37° C.
[6] = Stability study of levorotatory enantiomer of compounds in solvent (MCT); format: physicochemical; details: MCT solution; for Isomer (%): dextrorotatory form
Experimental: 2. Test method: the samples were prepared according to Table 2, wherein each sample was dispensed into 10 vials according to the lofting volume, and the samples were lofted according to Table 3.
4. The related substance was determined according to high performance liquid chromatography (General Chapter 0512, China Pharmacopoeia, 2015 Edition).
(1) Chromatographic conditions: the chromatography column was Agilent ZORBAX SB-C8, 4.6 mm×250 mm, 5 μm, and 0.1% phosphoric acid solution-acetonitrile (50:50) was used as a mobile phase; the detection wavelength was […]; the flow rate was 1.0 mL/min; the column temperature was 40° C., and linear gradient elution was performed according to the following table;
(§1) (2) Determination method: an appropriate amount of the product was weighed precisely, a diluent (absolute ethanol) was added and shaken to dissolve, and quantitatively diluted to give a solution containing 0.4 mg per 1 mL, the solution was […] by vortex for 30 s, and filtered with PTFE filter membrane (0.22 μm, JINTENG), and the filtrate was collected as a test sample solution. 10 μL of the solution was weighed precisely and injected into a liquid chromatograph, and a chromatogram was recorded; if an impurity peak existed in the chromatogram of the test sample solution, calculation was performed according to a peak area normalization method to give the target product.
5. Isomer determination was performed according to high performance liquid chromatography (General Chapter 0512, China Pharmacopoeia, 2015 Edition).
(1) Chromatographic conditions: cellulose-tris(3,5-dimethylphenylcarbamate)silica gel was used as filler (Chiralcel OD-H, 250×4.6 mm, 5 μm); n-hexane-isopropanol (90:10) was used as a mobile phase, and isocratic elution was performed for 25 min at a flow rate of 1.0 mL/min; the column temperature was 35° C.; the detection wavelength was 310 nm.
as §1, with “(n-hexane-isopropanol (90:10))” for “(absolute ethanol)”, “about 1.0” for “0.4”, “20” for “10”, “isomer” for “impurity”

CCC(OC(C)=O)OC(=O)C1CCn2c(C(=O)c3ccccc3)ccc21 (stereo not shown) [N3]
Metabolic by-products in human body [1]: Propionaldehyde and acetic acid
Toxicity [1]: relatively low
Total main peak purity (%) ([2]; Day 0): 92.45%
Total main peak purity (%) ([2]; Day 5): 90.83%
Total main peak purity (%) ([2]; Day 10): 90.36%
Ketorolac (%) ([2]; Day 0): 0.11%
Ketorolac (%) ([2]; Day 5): 0.15%
Ketorolac (%) ([2]; Day 10): 0.17%

CCC(=O)OC(C)OC(=O)C1CCn2c(C(=O)c3ccccc3)ccc21 (stereo not shown) [N4]
Metabolic by-products in human body [1]: Acetaldehyde and propionic acid
Toxicity [1]: relatively low
Total main peak purity (%) ([2]; Day 0): 98.91%
Total main peak purity (%) ([2]; Day 5): 98.38%
Total main peak purity (%) ([2]; Day 10): 98.04%
Ketorolac (%) ([2]; Day 0): 0.12%
Ketorolac (%) ([2]; Day 5): 0.17%
Ketorolac (%) ([2]; Day 10): 0.14%

CC(=O)OC(OC(=O)C1CCn2c(C(=O)c3ccccc3)ccc21)C(C)C (stereo not shown) [N5]
Metabolic by-products in human body [1]: Isobutyraldehyde and acetic acid
Total main peak purity (%) ([2]; Day 0): 97.46%
Total main peak purity (%) ([2]; Day 5): 97.62%
Total main peak purity (%) ([2]; Day 10): 97.37%
Ketorolac (%) ([2]; Day 0): 0.14%
Ketorolac (%) ([2]; Day 5): 0.15%
Ketorolac (%) ([2]; Day 10): 0.17%

CC(OC(=O)C(C)C)OC(=O)C1CCn2c(C(=O)c3ccccc3)ccc21 (stereo not shown) [N6]
Metabolic by-products in human body [1]: Acetaldehyde and isobutyric acid
Total main peak purity (%) ([2]; Day 0): 91.56%
Total main peak purity (%) ([2]; Day 5): 90.94%
Total main peak purity (%) ([2]; Day 10): 90.22%
Ketorolac (%) ([2]; Day 0): 0.14%
Ketorolac (%) ([2]; Day 5): 0.13%
Ketorolac (%) ([2]; Day 10): 0.17%

CC(OC(=O)C1CCn2c(C(=O)c3ccccc3)ccc21)OC(=O)C(C)(C)C (stereo not shown) [N7]
Metabolic by-products in human body [1]: Acetaldehyde and pivalic acid
Toxicity [1]: Pivalic acid is more toxic
Total main peak purity (%) ([2]; Day 0): 90.83%
Total main peak purity (%) ([2]; Day 5): 88.66%
Total main peak purity (%) ([2]; Day 10): 88.59%
Ketorolac (%) ([2]; Day 0): 0.18%
Ketorolac (%) ([2]; Day 5): 0.25%
Ketorolac (%) ([2]; Day 10): 0.32%

CCC(=O)OC(OC(=O)C1CCn2c(C(=O)c3ccccc3)ccc21)C(C)C (stereo not shown) [N9]
Total main peak purity (%) ([2]; Day 0): 96.21%
Total main peak purity (%) ([2]; Day 5): 95.58%
Total main peak purity (%) ([2]; Day 10): 95.21%
Ketorolac (%) ([2]; Day 0): 0.29%
Ketorolac (%) ([2]; Day 5): 0.31%
Ketorolac (%) ([2]; Day 10): 0.30%

CC(OC(=O)OC1CCCCC1)OC(=O)C1CCn2c(C(=O)c3ccccc3)ccc21 (stereo not shown) [N10]
Metabolic by-products in human body [1]: Acetaldehyde and cyclohexanol
Toxicity [1]: relatively low toxicity of byproducts
Total main peak purity (%) ([2]; Day 0): 96.36%
Total main peak purity (%) ([2]; Day 5): 94.28%
Total main peak purity (%) ([2]; Day 10): 94.41%
Ketorolac (%) ([2]; Day 0): 0.05%
Ketorolac (%) ([2]; Day 5): 0.23%
Ketorolac (%) ([2]; Day 10): 0.37%

CC(C)OC(=O)C1CCn2c(C(=O)c3ccccc3)ccc21 (stereo not shown) [N11, reference compound]
Content of ketorolac % ([3]; 0 min): 0%
Content of the compound % ([3]; 0 min): 99.700 ± 2.928%
Content of ketorolac % ([3]; 15 min): 0%
Content of the compound % ([3]; 15 min): 99.813 ± 4.881%
Content of ketorolac % ([3]; 30 min): 0%
Content of the compound % ([3]; 30 min): 89.807 ± 2.538%
Content of ketorolac % ([3]; 60 min): 2.270 ± 0.328%
Content of the compound % ([3]; 60 min): 83.490 ± 9.087%
half-life at 97.6 µM [4]: 5.78 h

COC(=O)OC(C)OC(=O)C1CCn2c(C(=O)c3ccccc3)ccc21 (stereo not shown) [N13]
Metabolic by-products in human body [1]: Acetaldehyde and methanol
Toxicity [1]: Methanol is more toxic

CCOC(=O)OC(CC)OC(=O)C1CCn2c(C(=O)c3ccccc3)ccc21 (stereo not shown) [N15]
Content of ketorolac % ([3]; 0 min): 1.727 ± 1.502%
Content of the compound % ([3]; 0 min): 99.560 ± 2.324%
Content of ketorolac % ([3]; 15 min): 23.933 ± 1.119%
Content of the compound % ([3]; 15 min): 76.800 ± 2.423%
Content of ketorolac % ([3]; 30 min): 50.917 ± 1.868%
Content of the compound % ([3]; 30 min): 46.680 ± 2.229%
Content of ketorolac % ([3]; 60 min): 83.957 ± 3.139%
Content of the compound % ([3]; 60 min): 12.760 ± 1.133%
Content of ketorolac % ([3]; 120 min): 96.910 ± 3.848%
Content of the compound % ([3]; 120 min): 0.893 ± 0.051%
half-life at 97.6 µM [5]: 0.282 h
Total main peak purity (%) ([2]; Day 0): 96.30%
Total main peak purity (%) ([2]; Day 5): 95.87%
Total main peak purity (%) ([2]; Day 10): 95.59%
Ketorolac (%) ([2]; Day 0): 0.08%
Ketorolac (%) ([2]; Day 5): 0.09%
Ketorolac (%) ([2]; Day 10): 0.14%

CCC(OC(=O)OC(C)C)OC(=O)[C@H]1CCn2c(C(=O)c3ccccc3)ccc21 (stereo partly drawn) [N16(S)]
Ketorolac (%) ([6]; 5° C., Day 5): 0.03%
Purity (%) ([6]; 5° C., Day 5): 99.55%
Ketorolac (%) ([6]; 5° C., Day 15): 0.02%
Purity (%) ([6]; 5° C., Day 15): 99.65%
Ketorolac (%) ([6]; 5° C., Day 30): 0.03%
Purity (%) ([6]; 5° C., Day 30): 99.52%
Ketorolac (%) ([6]; 5° C., day 0): 0.02%
Purity (%) ([6]; 5° C., day 0): 99.71%
Ketorolac (%) ([6]; 25° C., Day 5): 0.03%
Purity (%) ([6]; 25° C., Day 5): 99.52%
Ketorolac (%) ([6]; 25° C., Day 15): 0.03%
Purity (%) ([6]; 25° C., Day 15): 99.63%
Ketorolac (%) ([6]; 25° C., Day 30): 0.04%
Purity (%) ([6]; 25° C., Day 30): 99.48%
Ketorolac (%) ([6]; 25° C., day 0): 0.02%
Purity (%) ([6]; 25° C., day 0): 99.71%
Ketorolac (%) ([6]; 60° C., Day 5): 0.05%
Purity (%) ([6]; 60° C., Day 5): 99.52%
Ketorolac (%) ([6]; 60° C., Day 15): 0.12%
Purity (%) ([6]; 60° C., Day 15): 99.51%
Ketorolac (%) ([6]; 60° C., Day 30): 0.24%
Purity (%) ([6]; 60° C., Day 30): 99.27%
Ketorolac (%) ([6]; 60° C., day 0): 0.02%
Purity (%) ([6]; 60° C., day 0): 99.71%
Isomer (%) ([6]; 5° C., Day 5): 2.47%
Isomer (%) ([6]; 5° C., Day 15): 2.6%
Isomer (%) ([6]; 5° C., Day 30): 2.58%
Isomer (%) ([6]; 5° C., day 0): 2.46%
Isomer (%) ([6]; 25° C., Day 5): 2.47%
Isomer (%) ([6]; 25° C., Day 15): 2.6%
Isomer (%) ([6]; 25° C., Day 30): 2.59%
Isomer (%) ([6]; 25° C., day 0): 2.46%
Isomer (%) ([6]; 60° C., Day 5): 2.48%
Isomer (%) ([6]; 60° C., Day 15): 2.61%
Isomer (%) ([6]; 60° C., Day 30): 2.63%
Isomer (%) ([6]; 60° C., day 0): 2.46%

CCOC(=O)OC(OC(=O)C1CCn2c(C(=O)c3ccccc3)ccc21)C(C)C (stereo not shown) [N18]
Total main peak purity (%) ([2]; Day 0): 94.25%
Total main peak purity (%) ([2]; Day 5): 92.10%
Total main peak purity (%) ([2]; Day 10): 91.78%
Ketorolac (%) ([2]; Day 0): 0.06%
Ketorolac (%) ([2]; Day 5): 0.18%
Ketorolac (%) ([2]; Day 10): 0.26%

CC(C)OC(=O)OC(OC(=O)C1CCn2c(C(=O)c3ccccc3)ccc21)C(C)C (stereo not shown) [N19]
Total main peak purity (%) ([2]; Day 0): 96.30%
Total main peak purity (%) ([2]; Day 5): 94.61%
Total main peak purity (%) ([2]; Day 10): 94.41%
Ketorolac (%) ([2]; Day 0): 0.07%
Ketorolac (%) ([2]; Day 5): 0.09%
Ketorolac (%) ([2]; Day 10): 0.12%

CC(OC(=O)C1CCn2c(C(=O)c3ccccc3)ccc21)OC(=O)C1CCn2c(C(=O)c3ccccc3)ccc21 (stereo not shown) [N22]
Metabolic by-products in human body [1]: Acetaldehyde
Toxicity [1]: relatively low toxicity of byproducts
metabolic rates (in words) ([5]; summary statement, metabolized in a human body): slow metabolic rates

CCCCCCC(=O)OC(C)OC(=O)C1CCn2c(C(=O)c3ccccc3)ccc21 (stereo not shown) [N27]
Metabolic by-products in human body [1]: Acetaldehyde and n-heptanoic acid
Toxicity [1]: low
Content of the compound % ([5]; 1 min): 100%
Content of the compound % ([5]; 15 min): 100%
Content of the compound % ([5]; 30 min): 90.63 ± 1.81%
Content of the compound % ([5]; 60 min): 63.89 ± 1.20%
Content of the compound % ([5]; 120 min): 35.75 ± 1.46%
half-life at 97.6 µM [5]: 1.23 h

From patent US12649746B2, “Ketorolaco derivative, pharmaceutical composition and preparation method therefor and use thereof” (NANJING HERON PHARMACEUTICAL SCIENCE AND TECHNOLOGY CO., …, priority 2020, dated 2026)
